The values below come from patent publication US9387160B2, “Composition and method of treating skin conditions” (Johnson & Johnson Consumer Holdings France, priority 2008, dated 2016).

The conditions of series [1]: RPI=log K, octanol/water; cited from earlier work.
Series [2] is described as follows: Relative polarity index (RPI = log K, octanol/water partition coefficient). It is filed as physicochemical. The note with it: difference between Emollient RPI and Retinoid RPI. The text has this:
The relative polarity index (RPI) of an emollient is well known by the one skilled in the art. The methodology for its calculation is described in the article published by Wiesher et al. 2004 Int J. Cosmetic Science. 26, 173-182. RPI can be calculated from the octanol/water partition coefficient (K) with: RPI=log K. Partition coefficient estimations K have been published, for example in: • Leo A, Hansch C, and Elkins D (1971). “Partition coefficients and their uses”. Chem Rev 71 (6): 525-616. • Wilkinson, Andrew M.; McNaught, Alan D. (1997). “Partition Coefficient”. Compendium of Chemical Terminology: IUPAC Recommendations. Oxford: Blackwell Science. doi:10.1351/goldbook. ISBN 0-86542-684-8. http://goldbook.iupac.org/P0447.html and • Sangster, James (1997). Octanol-Water Partition Coefficients: Fundamentals and Physical Chemistry, Vol. 2 of Wiley Series in Solution Chemistry. Chichester: John Wiley & Sons Ltd. pp. 178 pages. The RPI of retinol is approximatively 1. The RPI of retinal and retinol esters are well-known by the one skilled in the art and are similar to RPI of retinol. The net RPI of an emollient to the retinoid is the difference between the Emollient RPI and the Retinoid RPI. The net RPI of a composition to the retinoid is the difference between the Composition RPI and the Retinoid RPI. […]

On to `CC1=C(/C=C/C(C)=C/C=C/C(C)=C/CO)C(C)(C)CCC1` [retinol], for which, in series [1], the “RPI (relative polarity index)” value is approximately 1. Regarding PPG15 stearyl ether, the “net relative polarity index to retinol” value in series [2] is “having the same polarity as retinol”.

For `CCCCCCCCCCCCCC(C)C` [isohexadecane], the “net relative polarity index to retinol” value in series [2] is recorded as 9.11.
